Laboratory results reported in US8022207B2, “Compound having affinity to amyloid” (Nihon Medi-Physics Co., Ltd., priority 2006, dated 2011).
Read-outs that look alike come from different tables or passages of the source. Values belong to the compound of their own block, whether it stands above or below them.

Tests used:
[1] = [^125I]-labeled, normal mice, brain; cited from earlier work
[2] = test system: Salmonella typhimurium TA98 and TA100; assay: Reverse mutation test (Ames test), overall judgment; format: cell-based; conditions: TA98 and TA100, regardless of addition of S9mix
Experimental: (§1) In order to examine mutagenicity of Compounds 1, 2 and 4, reverse mutation test using Salmonella typhimurium TA98 and TA100 (hereinafter referred to as Ames test) was conducted.
(§2) The test was conducted without addition of S9mix and with addition of S9mix. Dimethylsulfoxide was used as a negative control. A positive control was 2-(2-furyl)-3-(5-nitro-2-furyl)acrylamide in case S9mix was not added, and 2-aminoanthracene in case S9 mix was added.
(§3) The amount of each sample to be added to the test plate was 7 dosages (geometric ratio 4) with the maximum dose being 5000 μg/plate. After a sample to be examined and a strain (TA98 or TA100), or a sample to be examined, S9mix and the strain were mixed together, the mixture was multilayered using soft agar on a medium of a test plate, and then incubated at 37° C. for 48 hours.
(§4) In order to examine mutagenicity of Compound 8, reverse mutation test using Salmonella typhimurium TA98 and TA100 (hereinafter referred to as Ames test) was conducted.
(§5) The test was conducted without addition of S9mix and with addition of S9mix. Dimethylsulfoxide was used as a negative control. A positive control was 2-(2-furyl)-3-(5-nitro-2-furyl)acrylamide in case S9mix was not added, and 2-aminoanthracene in case S9mix was added.
as §3, with “Compound 8” for “each sample”, “3)” for “4)”, “Compound 8” for “a sample to be examined”, “Compound 8,” for “a sample to be examined,”

[3] = test system: Salmonella typhimurium TA100; assay: Reverse mutation test (Ames test), TA100; format: cell-based; conditions: maximum 5000 μg/plate
Experimental: as §1, §2, §3, §4, §5
as §3, with “Compound 8” for “each sample”, “3)” for “4)”, “Compound 8” for “a sample to be examined”, “Compound 8,” for “a sample to be examined,”

[4] = test system: Salmonella typhimurium TA98; assay: Reverse mutation test (Ames test), TA98; format: cell-based; conditions: maximum 5000 μg/plate
Experimental: as §1, §2, §3, §4, §5
as §3, with “Compound 8” for “each sample”, “3)” for “4)”, “Compound 8” for “a sample to be examined”, “Compound 8,” for “a sample to be examined,”

[5] = Partition coefficient based on the octanol extraction method (logPoctanol); format: physicochemical; conditions: octanol / 10 mmol/L phosphate buffer (pH 7.4), radioactivity count
Experimental: Using the obtained radioactivity count, logPoctanol was calculated in accordance with the equation (2).

[6] = target: T1, intracerebral amyloid (aggregated Aβ1-42 injected into amygdaloid nucleus) (Homo sapiens, UniProt P05067); assay: Ex vivo autoradiogram using rats of amyloid injected model (aggregated Aβ1-42); set-up: species or system male Wistar rat; conditions: rat, Aβ1-42 amyloid suspension in amygdaloid nucleus, brain removed 60 minutes after tail vein injection
T1 construct: Aβ1-42 (manufactured by Peptide Institute, Inc.) was dissolved in phosphate buffer (pH 7.4); purchased Peptide Institute, Inc
T1 sequence (P05067 672-713): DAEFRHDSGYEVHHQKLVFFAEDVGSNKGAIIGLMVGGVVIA
Experimental: As a control, 2.5 μL of a phosphate buffered physiological saline solution (pH 7.4) was injected into an amygdaloid nucleus on the other side of the rat. The rats were examined 1 day after the injection of the amyloid suspension and the phosphate buffered physiological saline solution (pH 7.4).
(§6) (4) Brain was removed 60 minutes after the injection to prepare a brain slice of 10 μm in thickness with a microtome (type: CM3050S, manufactured by LEICA). The brain slice was exposed to an imaging plate for 20 hours, and then image analysis was carried out by use of a Bio-imaging Analyzer (type: BAS-2500; manufactured by FUJIFILM Corporation).

[7] = Transferability into brain and clearance (Example II-11, II-12, Comparative Example II-1); format: in vivo, male Wistar rats; conditions: brain, rats, intravenous injection
Experimental: The rats were sacrificed by bleeding from abdominal artery, and brains were removed and subjected to measurement of mass of brains and further subjected to measurement of radioactivity (hereinafter referred to as A in this Example) with a single channel analyzer (detector type: SP-20 manufactured by OHYO KOKEN KOGYO Co., Ltd.) 2, 5, 30 and 60 minutes after the injection. Also, radioactivity (hereinafter referred to as B in this Example) of the rest of the whole body was measured in the same manner as above. Using these measurement results, radioactive accumulation per unit weight of brain (% ID/g) at the respective time points were calculated in accordance with the following formula (6).
Three animals were used for experiment at the respective time points.

[8] = [^11C]-labeled, rats; cited from earlier work
[9] = International Publication WO03/106439 pamphlet; cited from earlier work
[10] = Transferability into brain and clearance (Example I-16, Comparative Example I-7); conditions: brain, rats, intravenous injection
Experimental: Using Compound 6, a time course change of radioactive accumulation in brain of male Wistar rats (7-week old) was measured.
Also, radioactivity (hereinafter referred to as B in this Example) of 0.05 mL of a 1000-fold diluted solution of the injected solution was measured in the same manner as above. Using these measurement results, radioactive accumulation per unit weight of brain (% ID/g) at the respective time points was calculated in accordance with the following formula (5).

[11] = target: intracerebral amyloid (aggregated Aβ1-40 injected into amygdaloid nucleus) (Homo sapiens, UniProt P05067); conditions: rat, Aβ1-40 amyloid suspension in amygdaloid nucleus, brain removed 60 minutes after tail vein injection
Sequence of intracerebral amyloid (aggregated Aβ1-40 injected into amygdaloid nucleus) (P05067 672-711): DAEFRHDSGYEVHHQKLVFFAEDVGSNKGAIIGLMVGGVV
Experimental: The following experiment was carried out in order to examine whether amyloid in brain can be imaged by the compound of the present invention.
The rats were examined 1 day after the injection of the amyloid suspension and the phosphate buffered physiological saline solution (pH 7.4).
as §6

[12] = [^125I]-labeled compounds; cited from earlier work

Structure (SMILES): CN(C)c1ccc(-c2nc3ccc(I)cc3s2)cc1 [TZDM, 6-iodo-2-[4′-(N,N-dimethylamino)phenyl]benzothiazole]
Clearance from normal tissues [1]: insufficient in clearance from normal tissues

Structure (SMILES): CN(C)c1ccc(-c2nc3ccc(I)cc3o2)cc1 [IBOX, 6-iodo-2-[4′-(N,N-dimethylamino)phenyl]benzoxazole]
Clearance from normal tissues [1]: insufficient in clearance from normal tissues

Structure (SMILES): Oc1ccc(-c2cn3cc(I)ncc3n2)cc1 [Compound 8, 2-(4′-hydroxyphenyl)-6-iodoimidazo[1,2-a]pyrazine]
Judgment in the Ames test (mutagenicity) [2]: negative | Mutagenicity, With addition of S9mix, TA100 ([3]; 7 dosages (geometric ratio 3)): Negative | Mutagenicity, Without addition of S9mix, TA100 ([3]; 7 dosages (geometric ratio 3)): Negative | Mutagenicity, With addition of S9mix, TA98 ([4]; 7 dosages (geometric ratio 3)): Negative | Mutagenicity, Without addition of S9mix, TA98 ([4]; 7 dosages (geometric ratio 3)): Negative

logPoctanol value [5]: 1.7
Structure (SMILES): Oc1ccc(-c2cn3cc([123I])cnc3n2)cc1 [Compound 9, [^123I]-2-(4′-hydroxyphenyl)-6-iodoimidazo[1,2-a]pyrimidine]

Accumulation of radioactivity in the amygdaloid nucleus on the amyloid-injected side (autoradiogram of brain slice) [6]: marked accumulation of radioactivity | Radioactive accumulation per unit weight, After 2 min. [7]: 0.65 % ID/g | Radioactive accumulation per unit weight, After 5 min. [7]: 0.43 % ID/g | Radioactive accumulation per unit weight, After 30 min. [7]: 0.09 % ID/g | Radioactive accumulation per unit weight, After 60 min. [7]: 0.03 % ID/g | logPoctanol value [5]: 3.0
Structure (SMILES): Oc1ccc(-c2cn3cccc([123I])c3n2)cc1 [Compound 11, [^123I]-2-(4′-hydroxyphenyl)-8-iodoimidazo[1,2-a]pyridine]

Structure (SMILES): CNc1ccc(/C=C/c2ccc(O)cc2)cc1 [SB-13, (E)-4-methylamino-4′-hydroxystilbene]
Clearance from normal tissues [8]: it cannot be said that the clearance is sufficiently fast

Structure (SMILES): CN(C)c1ccc(/C=C/c2ccc(I)cc2)cc1 [m-I-SB, (E)-4-dimethylamino-4′-iodostilbene]
Clearance from normal tissues [1]: insufficient in clearance from normal tissues

Structure (SMILES): CC(=C(C#N)C#N)c1ccc2cc(N(C)CCF)ccc2c1 [FDDNP, 2-(1-{6-[(2-fluoroethyl)(methyl)amino]-2-naphthyl}ethylidene)malononitrile]
Reverse mutation test result [9]: positive

Structure (SMILES): CN(C)c1ccc(-c2cn3cc([125I])ccc3n2)cc1 [[^125I]-IMPY, reference compound]
logPoctanol value [5]: 2.1

Structure (SMILES): Oc1ccc(-c2cn3cc(I)cnc3n2)cc1 [Compound 4, 2-(4′-hydroxyphenyl)-6-iodoimidazo[1,2-a]pyrimidine]
Judgment in the Ames test (mutagenicity) [2]: negative | Mutagenicity, With addition of S9mix, TA100 ([3]; 7 dosages (geometric ratio 4)): Negative | Mutagenicity, Without addition of S9mix, TA100 ([3]; 7 dosages (geometric ratio 4)): Negative | Mutagenicity, With addition of S9mix, TA98 ([4]; 7 dosages (geometric ratio 4)): Negative | Mutagenicity, Without addition of S9mix, TA98 ([4]; 7 dosages (geometric ratio 4)): Negative

Structure (SMILES): CN(C)c1ccc(-c2cn3cc([123I])ccc3n2)cc1 [^123I-IMPY, reference compound]
Radioactive accumulation per unit weight, After 2 min. [10]: 1.02 % ID/g | Radioactive accumulation per unit weight, After 5 min. [10]: 0.99 % ID/g | Radioactive accumulation per unit weight, After 30 min. [10]: 0.20 % ID/g | Radioactive accumulation per unit weight, After 60 min. [10]: 0.08 % ID/g | Radioactive accumulation per unit weight, After 2 min. [7]: 1.19 % ID/g | Radioactive accumulation per unit weight, After 5 min. [7]: 0.97 % ID/g | Radioactive accumulation per unit weight, After 30 min. [7]: 0.23 % ID/g | Radioactive accumulation per unit weight, After 60 min. [7]: 0.09 % ID/g

Structure (SMILES): Oc1ccc(-c2cn3cc(Br)ccc3n2)cc1 [Compound 1, 6-bromo-2-(4′-hydroxyphenyl)imidazo[1,2-a]pyridine]
Judgment in the Ames test (mutagenicity) [2]: negative | Mutagenicity, With addition of S9mix, TA100 ([3]; 7 dosages (geometric ratio 4)): Negative | Mutagenicity, Without addition of S9mix, TA100 ([3]; 7 dosages (geometric ratio 4)): Negative | Mutagenicity, With addition of S9mix, TA98 ([4]; 7 dosages (geometric ratio 4)): Negative | Mutagenicity, Without addition of S9mix, TA98 ([4]; 7 dosages (geometric ratio 4)): Negative

Structure (SMILES): Oc1ccc(-c2cn3cc(I)ccc3n2)cc1 [Compound 2, 2-(4′-hydroxyphenyl)-6-iodoimidazo[1,2-a]pyridine]
Judgment in the Ames test (mutagenicity) [2]: negative | Mutagenicity, With addition of S9mix, TA100 ([3]; 7 dosages (geometric ratio 4)): Negative | Mutagenicity, Without addition of S9mix, TA100 ([3]; 7 dosages (geometric ratio 4)): Negative | Mutagenicity, With addition of S9mix, TA98 ([4]; 7 dosages (geometric ratio 4)): Negative | Mutagenicity, Without addition of S9mix, TA98 ([4]; 7 dosages (geometric ratio 4)): Negative

Structure (SMILES): Oc1ccc(-c2cn3cc([125I])ccc3n2)cc1 [Compound 5, [^125I]-2-(4′-hydroxyphenyl)-6-iodoimidazo[1,2-a]pyridine]
logPoctanol value [5]: 1.6

Structure (SMILES): Oc1ccc(-c2cn3cc([123I])ccc3n2)cc1 [Compound 6, [^123I]-2-(4′-hydroxyphenyl)-6-iodoimidazo[1,2-a]pyridine]
Accumulation of radioactivity on intracerebral amyloid (autoradiogram of brain slice) [11]: possesses a property of accumulating on intracerebral amyloid | Radioactive accumulation per unit weight, After 2 min. [10]: 0.96 % ID/g | Radioactive accumulation per unit weight, After 5 min. [10]: 0.69 % ID/g | Radioactive accumulation per unit weight, After 30 min. [10]: 0.16 % ID/g | Radioactive accumulation per unit weight, After 60 min. [10]: 0.04 % ID/g

Accumulation of radioactivity in the amygdaloid nucleus on the amyloid-injected side (autoradiogram of brain slice) [6]: marked accumulation of radioactivity | Radioactive accumulation per unit weight, After 2 min. [7]: 0.62 % ID/g | Radioactive accumulation per unit weight, After 5 min. [7]: 0.33 % ID/g | Radioactive accumulation per unit weight, After 30 min. [7]: 0.08 % ID/g | Radioactive accumulation per unit weight, After 60 min. [7]: 0.02 % ID/g | logPoctanol value [5]: 2.3
Structure (SMILES): Oc1ccc(-c2cn3cc([123I])ncc3n2)cc1 [Compound 10, [^123I]-2-(4′-hydroxyphenyl)-6-iodoimidazo[1,2-a]pyrazine]

Structure (SMILES): CN(C)c1ccc(-c2cn3cc(I)ccc3n2)cc1 [IMPY, 6-iodo-2-[4′-(N,N-dimethylamino)phenyl]imidazo[1,2-a]pyridine]
Clearance from normal tissues [12]: rapid clearance from normal tissues | Reverse mutation test result [9]: positive
